# Results from patent US20230159532A1, “PARATHYROID HORMONE (PTH) RECEPTOR ANTAGONISTS AND USES THEREOF” (Crinetics Pharmaceuticals, Inc., priority 2021, published 2023).
# pKi: −log10 of the molar value.
# Target: T1, human PTHR1 receptor (Homo sapiens, UniProt Q03431)
# T1 construct: purchased Eurofins HTS030M
# T1 sequence (Q03431 27-593): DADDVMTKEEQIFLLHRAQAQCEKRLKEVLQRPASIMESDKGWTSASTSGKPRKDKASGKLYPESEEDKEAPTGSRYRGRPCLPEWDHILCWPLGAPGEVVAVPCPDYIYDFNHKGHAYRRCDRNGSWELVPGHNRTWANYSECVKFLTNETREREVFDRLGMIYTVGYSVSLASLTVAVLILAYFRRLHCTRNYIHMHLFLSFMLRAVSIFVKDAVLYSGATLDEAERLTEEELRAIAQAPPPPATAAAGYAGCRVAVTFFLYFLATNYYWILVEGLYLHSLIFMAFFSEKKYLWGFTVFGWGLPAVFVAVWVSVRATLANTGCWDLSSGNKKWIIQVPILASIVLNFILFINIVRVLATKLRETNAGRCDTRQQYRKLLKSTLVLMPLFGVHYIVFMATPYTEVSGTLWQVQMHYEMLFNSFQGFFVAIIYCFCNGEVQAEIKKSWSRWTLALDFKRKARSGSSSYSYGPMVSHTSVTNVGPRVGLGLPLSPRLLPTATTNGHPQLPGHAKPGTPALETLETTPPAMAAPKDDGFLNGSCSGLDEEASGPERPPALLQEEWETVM
# Experiment: Competitive antagonist binding assay for hPTH-R1 (radioactive competition binding, SPA beads)
# Details: human PTHR1 membranes, [125I]-[Nle8,18,Tyr34]-PTH(1-34) 0.2 nM, 90 minutes at room temperature; read-out: hPTHR1 Ki
# Procedure, shortened: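 Displacement of 0.2 nM radioiodinated [Nle8,18,Tyr34]-PTH(1-34) from membrane-bound human PTHR1 measured by scintillation proximity after 90 min at room temperature. Compounds typically 0-10,000 nM final, pH 7.4 HEPES/Mg/Ca buffer with BSA and detergent. Ki calculated from competition data.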
row,Compound,pKi
1,"CCN1C(=O)N(c2c(F)cc(NCCNCCN3CCNC3=O)cc2F)c2cc(C#N)ccc2-c2cc(Cl)cnc21 [1-228, 4-chloro-10-{2,6-difluoro-4-[(2-{[2-(2-oxoimidazolidin-1-yl)ethyl]amino}ethyl)amino]phenyl}-8-ethyl-9-oxo-6,8,10-triazatricyclo[9.4.0.0^2,7]pentadeca-1(11),2(7),3,5,12,14-hexaene-13-carbonitrile]",> 7.00
2,"CCN1C(=O)N(c2c(F)cc(NCCNC3CCOC3)cc2F)c2cc(Cl)ccc2-c2cccnc21 (stereo not drawn) [1-5, 13-chloro-10-[2,6-difluoro-4-({2-[(oxolan-3-yl)amino]ethyl}amino)phenyl]-8-ethyl-6,8,10-triazatricyclo[9.4.0.0^2,7]pentadeca-1(11),2(7),3,5,12,14-hexaen-9-one]",> 7.00
3,"3-({2-[(4-{4-chloro-13-cyano-8-methyl-9-oxo-6,8,10-triazatricyclo[9.4.0.0^2,7]pentadeca-1(11),2(7),3,5,12,14-hexaen-10-yl}-3,5-difluorophenyl)amino]ethyl}amino)propanoic acid [1-217]",> 7.00
4,"CCN1C(=O)N(c2c(F)cc(NCCN[C@H]3C[C@@H](O)C3)cc2F)c2cc(C#N)ccc2-c2cc(Cl)cnc21 [1-192, 4-chloro-10-{2,6-difluoro-4-[(2-{1[(1s,3s)-3-hydroxycyclobutyl]amino}ethyl)amino]phenyl}-8-ethyl-9-oxo-6,8,10-triazatricyclo[9.4.0.0^2,7]pentadeca-1(11),2(7),3,5,12,14-hexaene-13-carbonitrile]",> 7.00
5,"CCN1C(=O)N(c2c(F)cc(NCCNCCCC(=O)O)cc2F)c2cc(C#N)cc(F)c2-c2cc(Cl)cnc21 [1-101, 4-({2-[(4-{4-chloro-13-cyano-8-ethyl-15-fluoro-9-oxo-6,8,10-triazatricyclo[9.4.0.0^2,7]pentadeca-1(11),2(7),3,5,12,14-hexaen-10-yl}-3,5-difluorophenyl)amino]ethyl}amino)butanoic acid]",> 7.00
6,"CNCCNc1cc(F)c(N2C(=O)N(C(C)C)c3ncc(F)cc3-c3c(F)cc(C#N)cc32)c(F)c1 [1-107, 10-(2,6-difluoro-4-{[2-(methylamino)ethyl]amino}phenyl)-4,15-difluoro-9-oxo-8-(propan-2-yl)-6,8,10-triazatricyclo[9.4.0.0^2,7]pentadeca-1(11),2(7),3,5,12,14-hexaene-13-carbonitrile]",> 7.00
7,"CCN1C(=O)N(c2c(F)cc(NCCNCCO)cc2F)c2cc(C#N)ccc2-c2cc(F)cnc21 [1-82, 10-[2,6-difluoro-4-({2-[(2-hydroxyethyl)amino]ethyl}amino)phenyl]-8-ethyl-4-fluoro-9-oxo-6,8,10-triazatricyclo[9.4.0.0^2,7]pentadeca-1(11),2(7),3,5,12,14-hexaene-13-carbonitrile]",> 7.00
8,"CNCCNc1cc(F)c(N2C(=O)N(C(C)C)c3ncc(Cl)cc3-c3ccc(C#N)cc32)c(F)c1 [1-91, 4-chloro-10-(2,6-difluoro-4-{[2-(methylamino)ethyl]amino}phenyl)-9-oxo-8-(propan-2-yl)-6,8,10-triazatricyclo[9.4.0.0^2,7]pentadeca-1(11),2(7),3,5,12,14-hexaene-13-carbonitrile]",> 7.00
9,"CCN1C(=O)N(c2c(F)cc(NCCC(=O)O)cc2F)c2cc(Cl)ccc2-c2cc(Cl)cnc21 [1-50, 3-[(4-{4,13-dichloro-8-ethyl-9-oxo-6,8,10-triazatricyclo[9.4.0.0^2,7]pentadeca-1(11),2(7),3,5,12,14-hexaen-10-yl}-3,5-difluorophenyl)amino]propanoic acid]",< 5.00
10,"CCN1C(=O)N(c2c(F)cc(NCCN3CC[C@@H](O)C3)cc2F)c2cc(C#N)ccc2-c2cc(Cl)cnc21 [1-231, 4-chloro-10-[2,6-difluoro-4-({2-[(3R)-3-hydroxypyrrolidin-1-yl]ethyl}amino)phenyl]-8-ethyl-9-oxo-6,8,10-triazatricyclo[9.4.0.0^2,7]pentadeca-1(11),2(7),3,5,12,14-hexaene-13-carbonitrile]",> 7.00
11,"CCN1C(=O)N(c2ccc(NCCNC)cc2)c2cc(Cl)ccc2-c2cc(Cl)cnc21 [2-3, 4,13-dichloro-8-ethyl-10-(4-{[2-(methylamino)ethyl]amino}phenyl)-6,8,10-triazatricyclo[9.4.0.0^2,7]pentadeca-1(11),2(7),3,5,12,14-hexaen-9-one]",> 7.00
12,"CNCCNc1cc(F)c(N2C(=O)N(C(C)C)c3ncc(F)cc3-c3ccc(C#N)cc32)c(F)c1 [1-84, 10-(2,6-difluoro-4-{[2-(methylamino)ethyl]amino}phenyl)-4-fluoro-9-oxo-8-(propan-2-yl)-6,8,10-triazatricyclo[9.4.0.0^2,7]pentadeca-1(11),2(7),3,5,12,14-hexaene-13-carbonitrile]",> 7.00
13,"CCN1C(=O)N(c2c(F)cc(NCCNCCO)cc2F)c2cc(Cl)cc(Cl)c2-c2cc(F)cnc21 [1-37, 13,15-dichloro-10-[2,6-difluoro-4-({2-[(2-hydroxyethyl)amino]ethyl}amino)phenyl]-8-ethyl-4-fluoro-6,8,10-triazatricyclo[9.4.0.0^2,7]pentadeca-1(11),2(7),3,5,12,14-hexaen-9-one]",> 7.00
14,"CN1C(=O)N(c2c(F)cc(NCCNCCCC(=O)O)cc2F)c2cc(C#N)ccc2-c2cc(Cl)cnc21 [1-201, 4-({2-[(4-{4-chloro-13-cyano-8-methyl-9-oxo-6,8,10-triazatricyclo[9.4.0.0^2,7]pentadeca-1(11),2(7),3,5,12,14-hexaen-10-yl}-3,5-difluorophenyl)amino]ethyl}amino)butanoic acid]",> 7.00
15,"CCCN1C(=O)N(c2c(F)cc(NCCNCCO)cc2F)c2cc(C#N)cc(F)c2-c2cc(F)cnc21 [1-125, 10-[2,6-difluoro-4-({2-[(2-hydroxyethyl)amino]ethyl}amino)phenyl]-4,15-difluoro-9-oxo-8-propyl-6,8,10-triazatricyclo[9.4.0.0^2,7]pentadeca-1(11),2(7),3,5,12,14-hexaene-13-carbonitrile]",> 7.00
16,"CCN1C(=O)N(c2c(F)cc(N3CC[C@H](NC)C3)cc2F)c2cc(C#N)ccc2-c2cc(Cl)cnc21 [1-235, 4-chloro-10-{2,6-difluoro-4-[(3S)-3-(methylamino)pyrrolidin-1-yl]phenyl}-8-ethyl-9-oxo-6,8,10-triazatricyclo[9.4.0.0^2,7]pentadeca-1(11),2(7),3,5,12,14-hexaene-13-carbonitrile]",> 7.00
17,"CCN1C(=O)N(c2c(F)cc(NCCN[C@H]3C[C@H](C(=O)O)C3)cc2F)c2cc(C#N)ccc2-c2cc(Cl)cnc21 [1-206, (1r,3r)-3-({2-[(4-{4-chloro-13-cyano-8-ethyl-9-oxo-6,8,10-triazatricyclo[9.4.0.0^2,7]pentadeca-1(11),2(7),3,5,12,14-hexaen-10-yl}-3,5-difluorophenyl)amino]ethyl}amino)cyclobutane-1-carboxylic acid]",> 7.00
18,"CCN1C(=O)N(c2c(F)cc(NCCNCCO)cc2F)c2cc(Cl)ccc2-c2cccnc21 [1-7, 13-chloro-10-[2,6-difluoro-4-({2-[(2-hydroxyethyl)amino]ethyl}amino)phenyl]-8-ethyl-6,8,10-triazatricyclo[9.4.0.0^2,7]pentadeca-1(11),2(7),3,5,12,14-hexaen-9-one]",> 7.00
